The target of the assay is Human immunodeficiency virus type 1 reverse transcriptase (Human immunodeficiency virus 1, UniProt Q72547). Kind of assay: Inhibition of HIV1 reverse transcriptase incubated for 1 hr by colorimetric assay.

The record followed here is ChEMBL document CHEMBL2203139, “Synthetic bicyclic iminosugar derivatives fused thiazolidin-4-one as new potential HIV-RT inhibitors” (Bioorg Med Chem Lett, 2012).

What is called IC50 is the concentration at which inhibition is half-maximal. `O=C1CS[C@H]2[C@H](O)[C@H](O)[C@H](O)CN12` registered an IC50 of 13 µM. For `O=C1CS[C@@H]2[C@H](O)[C@H](O)[C@H](O)CN12`, 19 µM corresponded to half-maximal inhibition (IC50). This IC50 and that of the compound before are within 1.5-fold of each other. As for `O=C1S[C@H]2[C@H](O)[C@H](O)[C@H](O)CN2C1=O`, the half-maximal inhibitory concentration (IC50) came out at 4.22 µM. This IC50 is about 4.5-fold lower than that of the compound before. In turn, `O=C1C[S+]([O-])[C@H]2[C@H](O)[C@H](O)[C@H](O)CN12` (some centres not stated) had an IC50 of 10.2 µM.

In the case of `O=C1C(O)S[C@H]2[C@H](O)[C@H](O)[C@H](O)CN12` (some centres not stated), the IC50 was 1.74 µM. In turn, `O=C1S[C@@H]2[C@H](O)[C@H](O)[C@H](O)CN2C1=O` showed a 50% inhibitory concentration (IC50) of 5.2 µM.

`O=C1C[S+]([O-])[C@@H]2[C@H](O)[C@H](O)[C@H](O)CN12` (some centres not stated) showed an IC50 of 2.45 µM.
